Laboratory results from patent US6878736B1, “Histamine H3 receptor ligands” (James Black Foundation Limited, priority 1998, dated 2005).
Where a name gives a salt, the structure may show the parent alone.

These molecules were tested against Histamine H3 receptor (Cavia porcellus, UniProt Q9JI35) (assay: Histamine H3 radioligand binding assay, guinea pig cortex ([3H]-R-α-methylhistamine)). Conditions: guinea pig cortex membranes, competition with 1 nM [3H]-R-α-methylhistamine.
Procedure: The compounds of the invention were also tested in a guinea pig cortex binding assay, as follows:
Histamine H3 Radioligand Binding Assay—Guinea Pig Cortex
Male Dunkin Hartley guinea pigs (200-300 g) were used. The whole brain was removed and immediately placed in ice-cold 20 mM Hepes-NaOH buffer (pH7.4 at 21±3° C.). The cortex was dissected, weighed and homogenised in ice-cold 20 mM Hepes-NaOH buffer (pH7.4 at 21±3° C.) (50 ml/guinea-pig cortex) using a polytron (Kinematica AG; PT-DA 3020/2TS, 3×3 s). The homogenate was centrifuged at 100×g for 5 min and the supernatants pooled and stored at 4° C. The pellets were rehomogenised in fresh ice-cold buffer (80 ml) and recentrifuged (100×g for 5 min). The supernatants were pooled and pellets rehomogenised and recentrifuged (100×g for 5 min). All supernatants were pooled and centrifuged at 39,800×g for 12 min at 4° C. The final pellet was resuspended in 20 mM Hepes-NaOH buffer (pH7.4 at 21±3° C.) to a tissue concentration of 7.5 mg.ml^−1, using a teflon-in-glass homogeniser.
Guinea pig cortex membranes (400 μl) were incubated for 165 min at 21±3° C. in a final volume of 500 μl with 20 mM Hepes-NaOH buffer containing [^3H]-R-α-methylhistamine (50 μl; 1 nM) and competing compound. Total and non-specific binding of [^3H]-R-α-methylhistamine were defined using 50 μl of buffer and 50 μl of 10 μM thioperamide, respectively. The assay was terminated by rapid filtration through Whatman GF/B filters, presoaked (2 hr) in 0.1% polyethyleneimine, using a Brandell Cell Harvester. The filters were washed (3×3 ml) with ice-cold 50 mM Tris-HCl (pH6.9 at 21±3° C.), transferred into scintillation vials, 5 ml liquid scintillation cocktail was added and after 4 hours the bound radioactivity was determined by counting (4 min) in a Beckman liquid scintillation counter.
Data are analysed using GraphPad prism and the general equation for a competition curve with variable Hill slope (nH). [formula] where • X is the log concentration of competing compound, • Y is the binding obtained at each concentration of X, • pIC50 is the concentration of the competitor required to compete for half of the specific binding.
The IC50 is converted to the K1 using the Cheng Prusoff equation, K1=IC50/(1+(L/KD)) where • IC50 is the concentration of competitor required to compete for half the specific binding, • L is the radioligand concentration used, • KD is the equilibrium dissociation constant for the radioligand determined by saturation experiments.

Sequence of Histamine H3 receptor (Q9JI35 whole entry): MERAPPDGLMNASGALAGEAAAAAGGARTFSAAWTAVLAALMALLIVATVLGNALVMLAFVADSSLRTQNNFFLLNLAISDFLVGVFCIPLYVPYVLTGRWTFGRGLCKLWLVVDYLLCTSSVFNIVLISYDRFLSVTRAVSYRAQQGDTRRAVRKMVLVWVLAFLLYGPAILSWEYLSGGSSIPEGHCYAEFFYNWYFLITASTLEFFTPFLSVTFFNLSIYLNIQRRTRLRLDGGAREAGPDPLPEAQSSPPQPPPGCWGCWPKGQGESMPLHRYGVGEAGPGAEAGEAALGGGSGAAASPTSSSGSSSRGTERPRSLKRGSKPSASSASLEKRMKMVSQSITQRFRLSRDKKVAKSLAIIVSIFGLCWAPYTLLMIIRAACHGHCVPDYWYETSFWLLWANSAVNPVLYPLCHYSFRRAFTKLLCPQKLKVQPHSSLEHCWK

Cl.Cl.N=C(NCCCN1CCCC1)NCC1CCCCC1 [Example 39, N-Cyclohexyl-methyl-N′-(3-pyrrolidin-1-yl-propyl)-guanidine bis-hydrochloride] was tested. Which “pKi (Guinea pig cortex)” value did it give?
The value was 7.4.

Same assay, conditions: guinea pig cortex membranes, competition with 1 nM [3H]-R-α-methylhistamine; read-out: pKi (Guinea pig cortex) (converted)

How did the Ki turn out when N=C(NCCCN1CCOCC1)NCc1ccc(Cl)cc1 [Example 15, N-(4-Chlorobenzyl)-N′-(3-morpholin-4-yl-propyl)-guanidine bis-hydrochloride] was run?
Its Ki is 794 nM.

Which Ki does the source give for N=C(NCCc1ccc(Cl)cc1)NCCN1CCCC1 [Example 23, N-(2-(4-Chlorophenyl)ethyl)-N′-(2-pyrrolidin-1-yl-ethyl)-guanidine bis-hydrochloride] here?
Its Ki is 316 nM.

CN1CCCC1CCNC(=N)NCc1ccc(Cl)cc1 (centres unmarked) [Example 27, N-(4-Chlorobenzyl)-N′-(2-(1-methyl-pyrrolidin-2-yl)-ethyl)-guanidine bis-hydrochloride] was tested. Which Ki did it give?
The Ki was 158 nM.

Which Ki does the source give for N=C(NCCCCCN1CCCC1)NCc1ccc(C2CCCCC2)cc1 [Example 57, N-(4-Cyclohexylbenzyl)-N′-(5-pyrrolidin-1-yl-pentyl)-guanidine bis-hydrochloride] here?
The Ki was 20 nM.

Which Ki does the source give for CN1CCN(CCCCNS(=O)(=O)c2ccc3ccccc3c2)CC1 [Example 85, N-(4-(4-Methyl-piperazin-1-yl)-butyl)-2-naphthalenesulfonamide] here?
The Ki was 158 nM.

With CN(CCN1CCCC1)S(=O)(=O)c1ccc2ccccc2c1 [Example 86, N-(2-Pyrrolidin-1-yl-ethyl)-N-methyl-2-naphthalenesulfonamide] as the molecule, how does the Ki read?
The Ki was 2510 nM.

With [O-][S+](NCCCN1CCCC1)c1ccc2ccccc2c1 (centres unmarked) [Example 87, N-(3-Pyrrolidin-1-yl-propyl)-2-naphthalenesulfinamide] as the molecule, how does the Ki read?
The Ki was 1260 nM.

How did the Ki turn out when CN1CCCCC1CCNS(=O)(=O)c1ccc2ccccc2c1 (centres unmarked) [Example 90, N-(2-(1-Methyl-piperidin-2-yl)-ethyl)-2-naphthalenesulfonamide] was run?
The Ki was 1260 nM.

With CN1CCCC(CCCNS(=O)(=O)c2ccc3ccccc3c2)C1 (centres unmarked) [Example 92, N-(3-(1-Methyl-piperidin-3-yl)-propyl)-2-naphthalenesulfonamide] as the molecule, how does the Ki read?
The Ki was 2000 nM.

For CN1CCC(CCCNS(=O)(=O)c2ccc3ccccc3c2)CC1 [Example 93, N-(3-(1-Methyl-piperidin-4-yl)-propyl)-2-naphthalenesulfonamide], which Ki is on record?
The Ki was 3160 nM.

Which Ki does the source give for CN1CCCC1CCNS(=O)(=O)c1cccc2ccccc12 (centres unmarked) [Example 94, N-(2-(1-Methyl-pyrrolidin-2-yl)-ethyl)-1-naphthalenesulfonamide] here?
The Ki was 2510 nM.

With Cc1ccc(S(=O)(=O)NCCC2CCCN2C)cc1 (centres unmarked) [Example 95, N-(2-(1-Methyl-pyrrolidin-2-yl)ethyl)4-toluenesulfonamide] as the molecule, how does the Ki read?
The Ki was 1580 nM.

Which Ki does the source give for CN1CCCC1CCNS(=O)(=O)c1ccc(Cl)cc1 (centres unmarked) [Example 96, N-(2-(1-Methyl-pyrrolidin-2-yl)-ethyl)-4-chlorophenylsulfonamide] here?
The Ki was 1580 nM.

Which Ki does the source give for CN1CCC[C@H]1CCNS(=O)(=O)Cc1ccc(Cl)cc1 [Example 97, N-(2-(1-Methyl-pyrrolidin-2S-yl)-ethyl)-(4-chlorophenyl)-methanesulfonamide] here?
Its Ki is 1580 nM.

With CN1CCC[C@H]1CCCNS(=O)(=O)NCc1ccccc1 [Example 108, N-Benzyl-N′-(3-(1-methyl-pyrrolidin-2S-yl)-propyl)-sulfamide] as the molecule, how does the Ki read?
The Ki was 1580 nM.

With CN1CCC[C@@H]1CCCNS(=O)(=O)NCc1ccc(Cl)cc1 [Example 109, N-(4-Chlorobenzyl)-N′-(3-(1-methyl-pyrrolidin-2R-yl)-propyl)-sulfamide] as the molecule, how does the Ki read?
Its Ki is 200 nM.

Which Ki does the source give for CN1CCC[C@H]1CCCNS(=O)(=O)NCCc1ccc(Cl)cc1 [Example 111, N-(2-(4-Chlorophenyl)-ethyl)-N′-(3-(1-methyl-pyrrolidin-2S-yl)-propyl)-sulfamide] here?
Its Ki is 1580 nM.

Which Ki does the source give for CN1CCCC1CCCCCNS(=O)(=O)NCc1ccc(Cl)cc1 (stereo not drawn) [Example 117, N-(4-Chlorobenzyl)-N′-(5-(1-methyl-pyrrolidin-2S-yl)-pentyl)-sulfamide] here?
The Ki was 79.4 nM.

How did the Ki turn out when O=S(=O)(NCCC[C@@H]1CCCN1CCCc1ccc(Cl)cc1)NCc1ccc(Cl)cc1 [Example 118] was run?
Its Ki is 1580 nM.
